Experimental data from patent US10588897B2 (priority 2013, dated 2020).
Where two headings read alike, the source gives them in different places.

Tests used:
[1] = test system: wildtype Y. pseudotuberculosis IP2666; assay type: cell-based, Yersinia pseudotuberculosis
[2] = test system: Y. pseudotuberculosis T3SS; assay type: cell-based, Yersinia pseudotuberculosis
[3] = test system: Y. pseudotuberculosis T3SS (YopE secretion); assay type: cell-based, Yersinia pseudotuberculosis
[4] = test system: E. coli; conditions: found by Kimura et al.; cited from earlier work
[5] = test system: Escherichia coli type III secretion; conditions: literature; cited from earlier work
[6] = test system: Yersinia pestis type III secretion; conditions: cited from earlier work

C/C=C(\C)[C@H](O)[C@H](C)/C=C(C)/C=C/C/C(C)=C/Cc1nc(OC)cc(O)c1C [Mer-A 2026B]
Y. pseudotuberculosis in vitro growth (OD600 compound-treated/OD600 DMSO-treated) [1]: do not affect | Yersinia growth by optical density [1]: did not inhibit | YopM translocation into CHO cells [2]: significantly reduced | T3SS inhibition (YopM translocation into CHO cells) ([2]; 71 µM): 75% | inhibition of YopE secretion at lower concentrations [3]: dose dependent decrease in inhibition | reduction of secretion of the T3SS effector YopE [3]: 45%

C/C=C\C=C\[C@@H]1O[C@](O)([C@H](CC)C(=O)NC/C=C/C=C(\C)[C@@H](OC)[C@@H](C)[C@@H]2O[C@H](/C=C/C=C/C=C(\C)C(=O)c3c(O)ccn(C)c3=O)[C@H](O)[C@@H]2O)[C@H](O)[C@H](O)C1(C)C [Aurodox]
inhibition of YopE secretion ([3]; 12.5 μM, highest concentration used): did not significantly inhibit | concentrations cytotoxic to E. coli [4]: above 12.5 μM | in vitro type III secretion by Escherichia coli [5]: reduce

C/C=C(\C)[C@H](O)[C@H](C)/C=C(C)/C=C/C/C(C)=C/Cc1nc(OC)c(OC)c(O)c1C [Piericidin A1]
Y. pseudotuberculosis in vitro growth (OD600 compound-treated/OD600 DMSO-treated) ([1]; 143 μM, 23° C., continuous shaking): do not affect | Y. pseudotuberculosis in vitro growth (OD600 compound-treated/OD600 DMSO-treated) ([1]; 143 μM, 37° C., continuous shaking): do not affect | Yersinia growth by optical density ([1]; 26° C. and 37° C., all tested concentrations up to 143 μM): did not inhibit | YopM-β-lactamase translocation ([2]; concentrations of 36 μM and greater): significantly diminished | reduction of secretion of the T3SS effector YopE ([3]; 71 μM, 2 hours at 37° C., relative to DMSO): 65%

CC(Oc1ccc(Cl)cc1Cl)C(=O)NCc1ccc2c(c1)OCO2 (stereo not drawn) [MBX 1641]
in vitro type III secretion by Yersinia pestis [6]: reduce
